Laboratory results from paper PMC9852121, “Targeted α-therapy using astatine (^211At)-labeled PSMA1, 5, and 6: a preclinical evaluation as a novel compound” (European Journal of Nuclear Medicine and Molecular Imaging, 2022).
Where two headings read alike, the source gives them in different places.

Key:
[1] = design: method as in PMID 27789722, PMID 27889802; conditions: mice; cited from earlier work
[2] = design: method as in PMID 27789722, PMID 27889802; conditions: humans; cited from earlier work
LNCaP xenograft [3] = assay: Treatment effect in LNCaP xenograft mice (tumor size, body weight); assay type: in vivo, NOD/SCID mice; conditions: single administration 0.4 MBq, versus saline
Excerpt: (§1) Non-obese diabetic/severe combined immunodeficiency (NOD/SCID) mice (5 weeks old, male) were purchased from Charles River Japan, Inc. (Atsugi, Japan). LNCaP cells were suspended in a 1:1 mixture of medium and Matrigel (Corning, USA), subcutaneously implanted into the unilateral flank of the mice (approximately 6–10 × 10^6 cells), and used approximately 5 weeks later (range, 4–8 weeks). Institute of Cancer Research (ICR) mice (6 weeks old, male) were purchased from Japan SLC, Inc. (Shizuoka, Japan) and used as a non-tumor-bearing cohort for the evaluation of biodistribution and histology.
LNCaP xenograft mice (body weight = 21.8 ± 5.98 g) were administered [^211At]PSMA5 (0.39 ± 0.03 MBq, 0.002 μg, n = 12), [^211At]PSMA1 (0.40 ± 0.07 MBq, 0.002 μg, n = 5), or saline (n = 10). […] Non-radiolabeled PSMA5 (high mass, 0.02 μg; low mass, 0.002 μg) and PSMA1 (high mass, 0.02 μg; low mass, 0.002 μg) were also administered to LNCaP xenograft mice (each n = 3) and compared with saline-injected mice (n = 3) to assess the absence of antitumor effect by the PSMA compound itself. […] The body weight (g) was also monitored.

LNCaP xenograft [4] = assay: Biodistribution in LNCaP xenograft model (NOD/SCID mice); assay type: in vivo; conditions: for Total excretion in the urine / Total excretion in the feces: Fig. 3 legend, mouse strain not given; for Tumor retention (uptake): about 0.11-0.12 MBq; for Kidney uptake, comparison [211At]PSMA5 versus [211At]PSMA6: 3 h post-injection, NOD/SCID mice
Excerpt: as §1
(§2) High PSMA expression was already confirmed in LNCaP xenografts in our previous study. The brain, thyroid, salivary gland, lung, heart, liver, spleen, pancreas, stomach, small intestine, colon, kidney, bone, testis, blood, urine, feces, and tumor were excised and weighed to evaluate biodistribution after euthanasia at 3 and 24 h after administration. Urine excretion was determined from absorption to filter paper or by urine collection in the cage, and feces were collected from the cage. Radioactivity was measured using a 2480 Wizard^2 γ counter. The detection efficiency for ^211At with the γ counter was calibrated by measurement of the ^211At source whose radioactivity was determined with a Ge semiconductor detector (BE2020, Mirion Technologies (Canberra), Connecticut, USA). Uptake was calculated as the percentage of injected dose (%ID).

[5] = test system: LNCaP cells (high expression of PSMA); assay: In vitro cellular uptake analysis (LNCaP versus PC-3 cells); assay type: cell-based, human; conditions: 30 min incubation, Fig. 2; for Cellular uptake, LNCaP cells compared with PC-3 cells: LNCaP high, PC-3 low PSMA expression
Excerpt: Human prostate cancer cell lines, prostatic carcinoma-3 (PC-3) (low expression of PSMA), and lymph node carcinoma of the prostate (LNCaP) (high expression of PSMA) were obtained from the RIKEN Cell Bank (Tsukuba, Japan). Cells were maintained in a culture medium, Roswell Park Memorial Institute 1640 medium (FUJIFILM Wako Pure Chemical Corporation, Osaka, Japan), supplemented with 10% heat-inactivated fetal bovine serum (Gibco) and 1% penicillin-streptomycin (FUJIFILM Wako Pure Chemical). The medium for LNCaP was supplemented with 1% sodium pyruvate (FUJIFILM Wako Pure Chemical) in a culture medium. Cells were seeded in 24-well plates (5 × 10^4/well) and cultured for 2 days. After washing twice with phosphate-buffered saline (PBS) (−), the culture medium was changed to Hanks’ balanced salt solution (+). After treatment with [^211At]PSMA1 or [^211At]PSMA5 (approximately 30–50 kBq/well), cells were washed twice with PBS (–). After washing, all cells were lysed with 0.1 N sodium hydroxide, and the radioactivity of the cells was calculated using a 2480 Wizard^2 γ counter (Perkin Elmer, MA, USA). Protein levels were measured using a plate reader (MultiScan FC, Thermo Fisher) and the BCA Protein Assay Kit (FUJIFILM Wako Pure Chemical). Uptake (%uptake/mg protein) was compared between PC-3 and LNCaP cells at 30 min after incubation with [^211At]PSMA1 or [^211At]PSMA5.

LNCaP xenograft [6] = assay: Planar imaging with γ camera in LNCaP xenograft mice; assay type: in vivo, NOD/SCID mice; conditions: 3 and 24 h post-injection
Description: Planar imaging was performed using a γ camera system (E-cam, Siemens) at 3 and 24 h after administration, targeting the X-rays emitted from the daughter nuclide ^211Po (energy window: 79 keV ± 20%). Image analysis was performed by setting the regions of interest in the tumor and kidneys using AMIDE software (version 1.0.4).

[7] = Biodistribution in normal ICR mice; assay type: in vivo; conditions: 3 h post-injection
Excerpt: as §1
as §2, with “The brain, thyroid, salivary gland, lung, heart, liver, spleen, pancreas, stomach, small intestine, colon, kidney, bone, testis, blood, urine, feces, and tumor were excised and weighed to evaluate biodistribution after euthanasia at 3 and 24 h after administration.” left out

[8] = Histopathological evaluation of organs in LNCaP xenograft mice; assay type: in vivo; conditions: LNCaP xenograft NOD/SCID mice, 3 and 6 weeks after 0.4 MBq
Description: (§3) The excised organs and tissues were fixed in a 10% neutral buffered formalin solution. After fixation, paraffin sections were prepared and stained with hematoxylin and eosin. Specimens were evaluated using an integrated microscope (BZ-X810; Keyence Corporation, Osaka, Japan). Histological evaluation was performed by a toxicopathology specialist with the support of KAC Co. Ltd. (Kyoto, Japan).

[9] = Histopathological evaluation of organs in normal ICR mice; assay type: in vivo; conditions: for Histopathology of kidney parenchyma, salivary gland, stomach, thyroid, spleen and small intestine: 8 weeks after 0.4 MBq
Description: as §3

[10] = Urine analysis with urinalysis test strips (protein) in normal ICR mice; assay type: in vivo; conditions: for Urine test of protein: individual animals No. 1-3
[11] = Plasma BUN and creatinine (renal function) in ICR mice; assay type: in vivo; conditions: 8 weeks after administration, Supplementary Fig. S2
Description: Plasma was obtained by centrifuging a portion of the blood sample collected at the time of euthanasia and was measured using a dry clinical chemistry analyzer (SPOTCHEM D-00 QR D-02; ARKRAY, Inc., Kyoto, Japan). Blood urea nitrogen (BUN) and creatinine (Cre) levels were also measured. Cre values less than 0.2 were considered 0.2 in the statistical analysis.

[12] = In vivo deastatination / metabolites in blood and urine; design: species or system mice
[13] = design: method as in PMID 27230930; conditions: cited from earlier work

Total excretion in the urine (LNCaP xenograft [4]; 3 h) [%ID]	Tumor retention (uptake) (LNCaP xenograft [4]; 3 h after administration) [%ID/g]	Total excretion in the feces (LNCaP xenograft [4]; 24 h) [%ID]	Total excretion in the urine (LNCaP xenograft [4]; 24 h) [%ID]	Tumor retention (uptake) (LNCaP xenograft [4]; 24 h after administration) [%ID/g]	Kidney uptake, comparison [211At]PSMA5 versus [211At]PSMA6 (LNCaP xenograft [4])	Kidney uptake, comparison [211At]PSMA5 versus [211At]PSMA6 [7]	Histopathology of kidney parenchyma, salivary gland, stomach, thyroid, spleen and small intestine [9]	Urine test of protein ([10]; Day 21 after 0.4 MBq)	Urine test of protein ([10]; Day 38 after 0.4 MBq)	SMILES	Changes in body weight (LNCaP xenograft [3])	Treatment effect on tumor growth (tumor size) (LNCaP xenograft [3])	Cellular uptake, LNCaP cells compared with PC-3 cells [5]	other results
8.26 ± 5.00	30.6 ± 17.8	35.2 ± 9.2	15.33 ± 6.3	40.7 ± 2.6	similar	similar	no significant changes	30 (1+) mg/dl	30 (1+) mg/dl	O=C(O)CCC(NC(=O)NC(CCCCNC(=O)C(Cc1ccc2ccccc2c1)NC(=O)c1ccc(CNC(=O)C(CCC(=O)O)NC(=O)C(CCC(=O)O)NC(=O)Cc2ccc([211At])cc2)cc1)C(=O)O)C(=O)O (centres unmarked) [[^211At]PSMA5]	No significant changes in body weight	excellent tumor growth suppression	more highly incorporated into LNCaP cells	Tumor uptake, comparison with [211At]PSMA6 (LNCaP xenograft [4]; mouse, in vivo): higher tumor uptake than [^211At]PSMA6; Tumor-to-kidney uptake, comparison with [211At]PSMA6 (LNCaP xenograft [4]; mouse, in vivo): better tumor-to-kidney uptake; Uptake in the tumor xenografts and kidneys on planar images (LNCaP xenograft [6]): High uptake; Histopathology of salivary glands and stomach [8]: No significant changes; Histopathology of the kidneys [8]: regenerated tubules were observed in the cortical area in all NOD/SCID mice; Mice with regenerated tubules in the cortical area of the kidney ([9]; 2 weeks after high dose 1 MBq): one out of four; Proteinuria ([10]; 8 weeks after administration): did not observe proteinuria; Urine test of protein ([10]; Day 10 after 0.4 MBq): 30 (1+) mg/dl; Urine test of protein ([10]; Day 14 after 0.4 MBq): 30 (1+) mg/dl; BUN and Cre levels [11]: did not observe proteinuria or increased BUN and Cre levels; Cellular uptake, comparison between compounds [5]: higher uptake than [^211At]PSMA1; Metabolites, including astatide ions, present in urine (deastatination) ([12]; 3 h after injection, mice): not more than 1.0 % of the injected doses; Radioactivity in the blood and urine from intact molecules ([12]; 3 h post injection): most of the radioactivity observed in the blood and urine was from intact molecules
–	19.1 ± 4.5	9.78 ± 0.79	6.20 ± 1.51	18.1 ± 2.2	similar	similar	no significant changes	30 (1+) mg/dl	30 (1+) mg/dl	O=C(O)CC[C@H](NC(=O)N[C@@H](CCCCNC(=O)[C@@H](Cc1ccc2ccccc2c1)NC(=O)c1ccc(CNC(=O)[C@H](CCC(=O)O)NC(=O)[C@H](CCC(=O)O)NC(=O)Cc2ccc([211At])cc2)cc1)C(=O)O)C(=O)O [[^211At]PSMA6]	–	–	–	Retention in the kidney, comparison with [211At]PSMA5 (LNCaP xenograft [4]; 24 h post-injection): higher retention in the kidney; Urine test of protein ([10]; Day 24 after 0.4 MBq): 100 (2+) mg/dl; Urine test of protein ([10]; Day 31 after 0.4 MBq): 30 (1+) mg/dl; Urine test of protein ([10]; Day 45 after 0.4 MBq): 30 (1+) mg/dl

The remaining lines, values behind:

SMILES	Total excretion in the urine (LNCaP xenograft [4]; 3 h) [%ID]	Tumor retention (uptake) (LNCaP xenograft [4]; 3 h after administration) [%ID/g]	Total excretion in the feces (LNCaP xenograft [4]; 24 h) [%ID]	Total excretion in the urine (LNCaP xenograft [4]; 24 h) [%ID]	Tumor retention (uptake) (LNCaP xenograft [4]; 24 h after administration) [%ID/g]	Kidney uptake, comparison [211At]PSMA5 versus [211At]PSMA6 (LNCaP xenograft [4])	Kidney uptake, comparison [211At]PSMA5 versus [211At]PSMA6 [7]	Histopathology of kidney parenchyma, salivary gland, stomach, thyroid, spleen and small intestine [9]	Urine test of protein ([10]; Day 21 after 0.4 MBq)	Urine test of protein ([10]; Day 38 after 0.4 MBq)	Changes in body weight (LNCaP xenograft [3])	Treatment effect on tumor growth (tumor size) (LNCaP xenograft [3])	Cellular uptake, LNCaP cells compared with PC-3 cells [5]	other results
O=C(O)CC[C@H](NC(=O)N[C@@H](CCCCNC(=O)[C@H](Cc1ccc2ccccc2c1)NC(=O)c1ccc(CNC(=O)[C@H](CCC(=O)O)NC(=O)[C@H](CCC(=O)O)NC(=O)c2ccc([18F])nc2)cc1)C(=O)O)C(=O)O [[^18F]PSMA-1007]	–	–	–	–	–	–	–	–	–	–	–	–	–	Urine excretion in PET [1]: high urine excretion; Urine excretion in PET [2]: minimal
O=C(O)CCC(NC(=O)NC(CCCCNC(=O)C(Cc1ccc2ccccc2c1)NC(=O)c1ccc(CNC(=O)CCC(=O)NCCCCC(NC(=O)CNC(=O)Cc2ccc([211At])cc2)C(=O)O)cc1)C(=O)O)C(=O)O (centres unmarked) [[^211At]PSMA1]	0.49 ± 0.37	12.4 ± 4.8	14.0 ± 4.8	14.7 ± 10.0	8.7 ± 3.5	–	–	–	–	–	No significant changes in body weight	good treatment effect	more highly incorporated into LNCaP cells	Kidney excretion, comparison with [211At]PSMA5 and [211At]PSMA6 (LNCaP xenograft [4]; mouse, in vivo): superior
O=C(O)CC[C@H](NC(=O)NC(CCCCNC(=O)c1ccc([211At])cc1)C(=O)O)C(=O)O (stereo partly drawn) [^211At-6, (2S)-2-(3-(1-carboxy-5-(4-211At-astatobenzamido)pentyl)ureido)-pentanedioic acid]	–	–	–	–	–	–	–	–	–	–	–	–	–	Kidney findings after treatment ([13]; 1.5 MBq): subcortical atrophy, and degenerative loss of proximal tubules; Proteinuria ([13]; animals treated with 1.5 MBq): developed proteinuria 1–2 months after treatment; Proteinuria ([13]; animals treated with 37 kBq): developed mild proteinuria that was later resolved
